“Also recorded” adds a separate entry of the source. Read-outs that look alike come from different tables or passages of the source.
Experiments:
[1] = system: Hepg2s spheroids; type: cell-based; settings: for necrotic core formation / cell death necrosis relative to control: hypoxic and nutrient deprivation stress, DRAQ7, up to day 7
Method: Media changes were on alternative days. […] DMSO controls were added on each plate.
In some of the following Examples, human 3D cell culture was employed using liver Hepg2 cells. 3D cell culture is known to accurately replicate a cell's native environment. During embryonic development, cells aggregate and self-assemble into complex multi-cellular structures. The same aggregation process can likewise occur in in vitro culture systems if cell-cell cohesion is favoured over cell attachment to a substrate. The resulting 3D cell culture aggregates are known as spheroids. […] A standard method of spheroid formation in U-bottom low adhesion plates was used in the Examples herein.
This is because, as the spheroids grow, only the peripheral cells obtain oxygen and nutrients from the cell culture medium. The inner cells die from cell death necrosis, with the formation of large necrotic cores (observable though use of standard live dead stains). Thus, necrotic core formation represents a naturally occurring hypoxic and nutrient stress. This resembles multiple forms of shock in humans where blood flow carrying nutrients and oxygen is disrupted to certain cells, tissues and/or organs.

[2] = known in the art; cited from earlier work
[3] = system: human intestinal fibroblast primary cell spheroids; assay: Human intestinal fibroblast primary cell spheroids, hydrogen peroxide oxidative stress, Calcein AM/Ethidium homodimer-1 stain; type: cell-based; settings: hydrogen peroxide 800 μM for 6 hrs; preventative; Dantrolene 100 μM, retinoic acid 10, 20 or 40 μM, Nifedipine 10 μM
Method: Media changes were on alternative days. […] Drug treatment was done overnight prior stress. […] Two repeats of all conditions were performed. Each repeat used 31 organoids per condition. […] DMSO controls were assessed in parallel on each plate.
Thus far, the Examples have focused on hypoxic and nutrient deprivation stressors. To test other stressors, this Example uses an oxidative stress/toxin stress model, where human intestinal fibroblast (HIF) primary cell spheroids were exposed to hydrogen peroxide. The standard viability Calcein AM/Ethidium homodimer-1 staining was used as a marker of cell death. Following 800 μM hydrogen peroxide exposure for 6 hrs, just over 25% of cells were dead in the control (i.e. relative to Triton X-100 that kills all cells).

Row | Compound | necrotic core formation / cell death necrosis relative to control ([1]; Hepg2s spheroids) | other results
1 | COc1ccc([C@@H]2N[C@H](C(=O)O)Cc3c2[nH]c2ccccc32)cc1CN1CCN(c2ccccc2F)CC1 (relative stereo) [cis-Ned 19] | no significant difference from the control; also recorded: no significant effect on level of cell death necrosis | –
2 | COc1ccc([C@H]2N[C@H](C(=O)O)Cc3c2[nH]c2ccccc32)cc1CN1CCN(c2ccccc2F)CC1 (relative stereo) [trans-Ned 19] | no significant difference from the control; also recorded: no significant effect on level of cell death necrosis | –
3 | CC(=O)OCOC(=O)CN(CC(=O)OCOC(C)=O)c1ccccc1OCCOc1ccccc1N(CC(=O)OCOC(C)=O)CC(=O)OCOC(C)=O [BAPTA-AM, 2-[N-[2-(acetyloxymethoxy)-2-oxoethyl]-2-[2-[2-[bis [2-(acetyloxymethoxy)-2-oxoethyl]amino]phenoxy]ethoxy]anilino]acetic acid acetyloxymethyl ester] | – | cell culture dosages considered maximum dosages which result in minimum toxicity [2]: 1 to 3 µM; toxicity at earlier time points ([1]; time points earlier than day 7): some milder toxicity in some trials; necrosis suppression ([1]; x8 dosage, 25 μM, day 7): significant necrosis suppression
4 | O=C(O)CN(CCN(CC(=O)O)CC(=O)O)CCN(CC(=O)O)CC(=O)O [DTPA, diethylenetriaminepentaacetic acid] | – | cell culture dosages considered maximum dosages which result in minimum toxicity [2]: around 50 μM; toxicity at earlier time points [1]: some mild, but not statistically significant, toxicity; dosage needed to suppress necrosis ([1]; Hepg2s spheroids, day 7): 4000 µM
5 | O=C1CN(/N=C/c2ccc(-c3ccc([N+](=O)[O-])cc3)o2)C(O)=N1 [Dantrolene] | no significant difference from the control; also recorded: no significant effect on necrosis inhibition; also recorded: no significant effect on cell necrosis relative to control | necrosis following oxidative stress relative to control [3]: either no significant difference or a worse effect to control; necrotic core formation / cell death necrosis relative to control ([1]; Hepg2s spheroids, listed as dantrolene): no significant difference to control
6 | CCCCC/C=C\C/C=C\C/C=C\C/C=C\CCCC(=O)O [arachidonic acid] | No significant necrosis prevention and/or treatment | –
7 | CC1(C)[C@@H](OC(=O)CCC(=O)O)CC[C@]2(C)[C@H]3C(=O)C=C4[C@@H]5C[C@@](C)(C(=O)O)CC[C@]5(C)CC[C@@]4(C)[C@]3(C)CC[C@@H]12 [carbenoxolone] | No significant necrosis prevention and/or treatment | –
8 | O=C(O)c1ccccc1Nc1cccc(C(F)(F)F)c1 [flufenamic acid] | No significant necrosis prevention and/or treatment | –
9 | CC1(C)[C@@H](O)CC[C@]2(C)[C@H]3C(=O)C=C4[C@@H]5C[C@@](C)(C(=O)O)CC[C@]5(C)CC[C@@]4(C)[C@]3(C)CC[C@@H]12 [glycyrrhetinic acid] | No significant necrosis prevention and/or treatment | –
10 | FC(F)(F)C(Cl)Br (stereo not shown) [halothane] | No significant necrosis prevention and/or treatment | –
11 | CCCCCCCO [heptanol] | No significant necrosis prevention and/or treatment | –
12 | CCCCC/C=C\C/C=C\CCCCCCCC(=O)O [linoleic acid] | No significant necrosis prevention and/or treatment | level of cell death / toxicity in isolation relative to control [1]: greater toxicity relative to control
13 | Cc1ccc(Cl)c(Nc2ccccc2C(=O)O)c1Cl [meclofenamic acid] | No significant necrosis prevention and/or treatment | –
14 | OC(c1cc(C(F)(F)F)nc2c(C(F)(F)F)cccc12)C1CCCCN1 (stereo not shown) [mefloquine] | No significant necrosis prevention and/or treatment | –
15 | O=C(O)c1cccnc1Nc1cccc(C(F)(F)F)c1 [niflumic acid] | No significant necrosis prevention and/or treatment | –
16 | CCCCCCCCO [octanol] | No significant necrosis prevention and/or treatment | level of cell death / toxicity in isolation relative to control ([1]; compound in isolation, most trials): greater toxicity relative to control
17 | CCCCCCCC/C=C\CCCCCCCC(N)=O [oleamide] | No significant necrosis prevention and/or treatment | –
18 | CCCCCCCC/C=C\CCCCCCCC(=O)O [oleic acid] | no significant difference from the control; also recorded: No significant necrosis prevention and/or treatment; also recorded: no significant effect on cell necrosis relative to control | –
19 | CCN(CC)CCOC(=O)c1ccc(N)cc1 [procaine] | no significant difference from the controls; also recorded: no significant effect on level of cell death necrosis | –
20 | C=C[C@H]1C[N@@]2CC[C@H]1C[C@@H]2[C@@H](O)c1ccnc2ccc(OC)cc12 [quinidine] | No significant necrosis prevention and/or treatment | –
21 | C=C[C@H]1C[N@@]2CC[C@H]1C[C@H]2[C@H](O)c1ccnc2ccc(OC)cc12 [quinine] | No significant necrosis prevention and/or treatment | –
22 | N.N.N.N.N.N.N.N.N.N.N.N.N.N.[Cl-].[Cl-].[Cl-].[Cl-].[Cl-].[Cl-].[O-2].[O-2].[Ru+3].[Ru+3].[Ru+4] [ruthenium red] | no significant difference from the controls; also recorded: no significant effect on level of cell death necrosis | –
23 | ryanodine | no significant difference from the control; also recorded: no significant difference to control | –
